Paper PMC9515472, “The AhR ligand phthiocol and vitamin K analogs as Pseudomonas aeruginosa quorum sensing inhibitors” (Frontiers in Microbiology, 2022)
pKd: −log10 of the molar value. Read-outs that look alike come from different tables or passages of the source.

Assays:
CYP1B1 = assay: qRT-PCR of AhR downstream gene CYP1B1 in THP-1 cells; settings: for CYP1B1 expression change in THP-1 AhR KD cells: THP-1 AhR-Knockdown (KD) cells
[1] = test system: P. aeruginosa pqs QS system (pqsA-gfp); assay type: cell-based, Pseudomonas aeruginosa
[2] = target: T1, human recombinant AhR protein (Homo sapiens, UniProt P35869); assay: Microscale thermophoresis (MST) binding to AhR protein
T1 sequence (P35869 128-399): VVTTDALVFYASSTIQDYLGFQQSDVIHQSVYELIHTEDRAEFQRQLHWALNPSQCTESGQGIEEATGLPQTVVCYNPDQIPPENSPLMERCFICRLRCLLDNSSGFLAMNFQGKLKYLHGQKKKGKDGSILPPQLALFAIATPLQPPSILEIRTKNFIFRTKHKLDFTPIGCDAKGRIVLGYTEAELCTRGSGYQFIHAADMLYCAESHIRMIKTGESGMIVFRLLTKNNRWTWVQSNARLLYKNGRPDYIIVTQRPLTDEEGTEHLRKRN

AHRR = assay: qRT-PCR of AhR downstream gene AHRR in THP-1 cells; assay type: cell-based, human; settings: for AHRR expression change in THP-1 AhR KD cells: THP-1 AhR-Knockdown (KD) cells; for AHRR transcription promoted: vs DMSO, increase
P. aeruginosa PAO1 = assay type: cell-based, Pseudomonas aeruginosa
[3] = test system: P. aeruginosa PAO1 biofilm formation; assay: Biofilm formation assay (crystal violet staining); assay type: cell-based, Pseudomonas aeruginosa
[4] = target: PqsR binding to the pqsA promoter (Pseudomonas aeruginosa, UniProt Q9I4X0); assay: Electrophoretic mobility shift assay (EMSA) with biotinylated pqsA promoter and cell lysates; assay type: biochemical; settings: PAO1 WT cell lysates
PqsR binding to the pqsA promoter, sequence (Q9I4X0 whole entry): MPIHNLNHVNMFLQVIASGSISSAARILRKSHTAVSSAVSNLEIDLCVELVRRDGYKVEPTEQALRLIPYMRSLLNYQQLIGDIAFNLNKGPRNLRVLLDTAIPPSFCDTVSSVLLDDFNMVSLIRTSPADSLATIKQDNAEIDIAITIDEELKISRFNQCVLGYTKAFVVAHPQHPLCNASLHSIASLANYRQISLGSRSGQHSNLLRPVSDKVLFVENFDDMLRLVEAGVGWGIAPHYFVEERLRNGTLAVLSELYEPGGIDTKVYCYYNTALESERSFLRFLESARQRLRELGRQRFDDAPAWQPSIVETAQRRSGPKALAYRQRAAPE

[5] = test system: P. aeruginosa rhamnolipid productions; assay type: cell-based, Pseudomonas aeruginosa; settings: Supplementary Figure 1
[6] = test system: P. aeruginosa PAO1 proteome; assay type: cell-based, Pseudomonas aeruginosa; settings: Bac_Pht vs Bac
P.aeruginosa = test system: P.aeruginosa; set-up: method as in Shinde and Wadekar, 2018; settings: due to metal ion chelating capacity; ref Shinde and Wadekar, 2018; cited from earlier work
[7] = test system: P. aeruginosa pqs QS system (pqsA-gfp); assay type: cell-based, Pseudomonas aeruginosa; remark: listed apart in the source
[8] = test system: P. aeruginosa PAO1 pyocyanin production; assay: Pyocyanin quantification assay; assay type: cell-based, Pseudomonas aeruginosa
[9] = 10 μM, THP-1 human monocytes, 24 h, vs DMSO alone, repression
[10] = 10 μM, THP-1 human monocytes, 24 h

| Compound | CYP1B1 expression change in THP-1 AhR KD cells (CYP1B1) | induction of pqsA-gfp expression [1] | pKd [2] | AHRR expression change in THP-1 AhR KD cells (AHRR) | effect on growth of P. aeruginosa (P. aeruginosa PAO1) | AHRR transcription promoted (AHRR; [10]) | inhibition of pqsA-gfp expression [7] | further results |
| --- | --- | --- | --- | --- | --- | --- | --- | --- |
| CCCCCCCc1[nH]c2ccccc2c(=O)c1O [PQS, 2-heptyl-3-hydroxy-4 (1H)-quinolone] | no significant expression changes | induced the pqsA-gfp expression in a dose-dependent manner | 5.43 | no significant expression changes | could not affect the growth | – | – | CYP1B1 transcription repressed (CYP1B1; [9]): 2.3 fold; AHRR transcription repressed (AHRR; [9]): 2.5 fold |
| CC1=C(O)C(=O)c2ccccc2C1=O [Pht, 2-hydroxy-3-methyl-1,4-naphthoquinone] | – | not | 6.32 | – | could not affect the growth | 1.9 fold | inhibit pqsA-gfp expression in a dose-dependent manner | biofilm formation [3]: suppressed by Pht to a level comparable to that of the PAO1 ΔlasIΔrhlI and the ΔpqsC strains; CYP1B1 transcription promoted (CYP1B1; 10 μM, THP-1 human monocytes, 24 h, vs DMSO, increase): 2.2 fold; effect on binding of PqsR (PAO1 cell lysates) to Bio-pqsA promoter [4]: attenuated the interaction between PAO1 cell lysates and Bio-pqsA; rhamnolipid production [5]: did not inhibit; FC(group2_group1) ([6]; PA1768, Zn_protease domain-containing protein, pValue 0.168581, Sig 0): 0.5758; FC(group2_group1) ([6]; PA4677, Dipeptidase, pValue 0.361511, Sig 0): 0.5653; FC(group2_group1) ([6]; PA5194, acidPPc domain-containing protein, pValue 0.333715, Sig 0): 0.5551; FC(group2_group1) ([6]; PA5195, Heat shock protein 15, pValue 0.131054, Sig 0): 0.3354; FC(group2_group1) ([6]; PA5437, Probable transcriptional regulator, pValue 0.358265, Sig 0): 0.4217; anti-P.aeruginosa activity (P.aeruginosa): moderate; optimal concentration for inhibition of pqsA-gfp expression ([7]; PAO1 PpqsA-gfp strain): 750 nM; pyocyanin production [8]: suppressed by Pht to a level comparable to that of PAO1 ΔlasIΔrhlI strain and the ΔpqsC strain |
| CC1=C(C/C=C(\C)CCC[C@H](C)CCC[C@H](C)CCCC(C)C)C(=O)c2ccccc2C1=O [Vitamin K1, Phylloquinone] | no change | – | 5.70 | no change | without affecting growth | 1.6 fold | inhibit pqsA-gfp expression dose-dependently | – |
| CC(C)=CCC/C(C)=C/CC/C(C)=C/CC/C(C)=C/CC1=C(C)C(=O)c2ccccc2C1=O [Vitamin K2, Menaquinones] | – | – | 6.23 | – | without affecting growth | – | inhibit pqsA-gfp expression dose-dependently | – |
| CC1=CC(=O)c2ccccc2C1=O [Vitamin K3, Menadione] | – | – | 5.66 | – | without affecting growth | – | inhibit pqsA-gfp expression dose-dependently | – |
